According to BindingDB's records for doi:10.1021/acs.jmedchem.6b00703 (Novartis Institutes of Biomedical Research (Nibr), 2016):

Experiment: Inhibition of PDGFR-beta driven proliferation of rat A10 cells after 68 hrs in presence of rat recombinant PDGF-BB by cell titer-glo luminescence assay

Row | Compound | IC50
1 | CN(CCNC(=O)c1ccc(F)c(NC(=O)c2cnc3cc(-c4ccnn4C)ccn23)c1)C(C)(C)C | 0.023 µM
2 | CN1CCN(c2ccccc2CNC(=O)c2ccc(F)c(NC(=O)c3cnc4cc(-c5cnn(C)c5)ccn34)c2)CC1 | 0.0036 µM
3 | Cn1nccc1-c1ccn2c(C(=O)Nc3cc(C(=O)NCCN4CCCC4(C)C)ccc3F)cnc2c1 | 0.0095 µM
4 | Cc1ncc(C(=O)NCc2ccccc2N2CCN(C)CC2)cc1NC(=O)c1cnn2cc(-c3ccnn3C)ccc12 | 0.035 µM
5 | CN1CCN(c2ccccc2CNC(=O)c2ccc(F)c(NC(=O)c3cnc4ccccn34)c2)CC1 | 0.036 µM
6 | Cc1ccc(C(=O)NCc2ccccc2)cc1NC(=O)c1cnn2ccccc12 | 0.012 µM
7 | Cn1cc(-c2ccn3c(C(=O)Nc4cc(C(=O)NCCN5CCCC5(C)C)ccc4F)cnc3c2)cn1 | 0.0017 µM
8 | CN1CCN(c2ccccc2CNC(=O)c2ccc(F)c(NC(=O)c3cnn4cc(-c5ccnn5C)ccc34)c2)CC1 | 0.01 µM
9 | CN1CCN(c2ccccc2CNC(=O)c2ccc(F)c(NC(=O)c3cnc4cc(-c5ccnn5C)ccn34)c2)CC1 | 0.0092 µM
10 | C[C@@H]1CCC[C@H](C)N1CCNC(=O)c1ccc(F)c(NC(=O)c2cnc3cc(-c4ccnn4C)ccn23)c1 | 0.0087 µM
11 | Cc1ncc(C(=O)NCCN2CCCC2(C)C)cc1NC(=O)c1cnn2cc(-c3cnn(C)c3)ccc12 | 0.013 µM
12 | CN1CCN(c2ccccc2CNC(=O)c2ccc(F)c(NC(=O)c3cnc4cc(-c5cccnc5)ccn34)c2)CC1 | 0.0079 µM
13 | CN1CCN(c2ccccc2CNC(=O)c2ccc(F)c(NC(=O)c3cnc4cc(-c5cc[nH]n5)ccn34)c2)CC1 | 0.019 µM
14 | Cn1nccc1-c1ccn2c(C(=O)Nc3cc(C(=O)NCC4CCC(C)(C)O4)ccc3F)cnc2c1 (configuration not stated) | 0.0027 µM
15 | Cn1nccc1-c1ccn2c(C(=O)Nc3cc(C(=O)NCc4ccc(F)c(F)c4)ccc3F)cnc2c1 | 0.003 µM
16 | Cc1ccc(NC(=O)c2ccc(CN3CCN(C)CC3)cc2)cc1Nc1nccc(-c2cccnc2)n1 | 0.162 µM
17 | CCN(CCNC(=O)c1ccc(F)c(NC(=O)c2cnc3cc(-c4ccnn4C)ccn23)c1)C(C)(C)C | 0.022 µM
